In brackets after ≈: the same amount, converted by molar mass.
Columns and labels:
[1] = Estimated hot solubility in solvents at elevated temperature (approximately solvent boiling point); type: physicochemical
Protocol: Compound I was dissolved in a variety of solvents at elevated temperature (approximately at solvent boiling point) to provide solutions of Compound I with a maximum concentration of 15 mg/mL. The input material in these experiments was a mixture of polymorphic forms 1, 2, and 3.
When concentrations of Compound I was greater than 2 mg/mL, the solutions were filtered and evaporated at 25° C. to isolate the solid.

[2] = tested on: mouse model of skin fibrosis; conditions: cited from earlier work
[3] = tested on: patients with diffuse cutaneous systemic sclerosis SSc (dcSSc); conditions: cited from earlier work
[4] = Dynamic vapor sorption (DVS); type: physicochemical; conditions: 25° C.
Protocol: Moisture sorption/desorption isotherms are recorded on a DVS-1 from SURFACE MEASUREMENT SYSTEMS. Two cycles are run at 25° C., in which the Relative Humidity (RH) is stepped from 0 to 95% and back to 0%. The data is evaluated with the software DVSWin V. 2.15.

[5] = Slurry stability study at room temperature (25° C.), 4 weeks, analysis by FTIR; type: physicochemical; conditions: for Final form after slurry: 25° C., 4 weeks, FTIR
Protocol: Slurry stability Maturation studies were initially conducted for the purpose of identifying the most […] stable form at room temperature (25° C.
In this set of experiments, both the individual forms and mixtures of forms were slurried in several solvents for 4 weeks, then filtered and analyzed to determine the resulting form. The first set of experiments included pure Form 1, Form 2, Form 3, and mixtures of these forms in equal amounts. The solvents included methanol, ethyl acetate, MEK, and methyl THF in order to investigate a range of solvent polarity. Additional experiments were conducted with a mixture of Form 1 and Form 4 in MEK and methanol.
Analysis was performed by FTIR due to ease of analysis for small quantities. It is interesting to note that the acid carbonyl is shifted to a different location for each polymorph. The results for the first set of experiments are listed below, comparing the starting form with the final form.

[6] = Solubility of polymorphs at pH 7.4 in phosphate buffer at 25° C.; type: physicochemical; conditions: pH 7.4 phosphate buffer; for Solubility, concentration (equilibrium): 24 hr
Protocol: The solubility of the different polymorphs was determined at pH 7.4 in phosphate buffer at 25° C. Samples were analyzed as a function of time for each form to determine the equilibrium values. The residual solids from each sample were analyzed to verify that the form was unchanged during the experiment. The concentration (mg/mL) versus time data is listed below for each form: […]

[7] = Slurry conversion study at 40-70° C., Form 1/Form 2 1:1 mixture; type: physicochemical
Protocol: Slurry converstion studies were also conducted at 40-70° C. with Forms 1 and 2 to determine a transition temperature between the forms. A mixture of Form 1 and Form 2 at a (1:1 ratio) was slurried at 40° C., 50° C., 60° C., and 70° C. in two different solvents at each temperature and then analyzed to determine the direction of transformation. At 40° C. and 50° C., Methanol and MEK were used. At 60° C. and 70° C. MEK and 1-Pentanol were used.

## COc1ccc(C(=O)NC2(C(=O)O)Cc3ccccc3C2)cc1OCCc1cccc(C)c1 [Compound I, 2-(4-methoxy-3-(3-methylphenethoxy)benzamido)-2,3-dihydro-1H-indene-2-carboxylic acid]
[1]; 1-Butanol
  Hot Solubility (est): >10000 µg/mL
[1]; 1-Pentanol
  Hot Solubility (est): >10000 µg/mL
[1]; Acetone
  Hot Solubility (est): >10000 µg/mL
[1]; Ethanol
  Hot Solubility (est): >10000 µg/mL
[1]; Hexane
  Hot Solubility (est): <2000 µg/mL
[1]; Isobutyl Alcohol
  Hot Solubility (est): >10000 µg/mL
[1]; Methanol
  Hot Solubility (est): >10000 µg/mL
[1]; Water
  Hot Solubility (est): <2000 µg/mL
[2]
  Collagen content: reduced
  Dermal thickening: reversed
  Myofibroblast differentiation: significantly inhibited
[3]
  Outcome measures: improved
  Target engagement: demonstrated

## COc1ccc(C(=O)NC2(C(=O)O)Cc3ccccc3C2)cc1OCCc1cccc(C)c1 [Form 1, 2-(4-methoxy-3-(3-methylphenethoxy)benzamido)-2,3-dihydro-1H-indene-2-carboxylic acid]
[4]
  Reversible water uptake (bound): less than 1%
[4]; between 0 and 95% RH
  Reversible water uptake: ~−0.1 % w/w
[5]; Ethyl Acetate
  Final form after slurry: Form 1
[5]; MEK
  Final form after slurry: Form 1
[5]; Methanol
  Final form after slurry: Form 1
[5]; Methyl THF
  Final form after slurry: Form 1
[5]; room temperature (25° C.)
  Relative stability of the crystal forms: most stable form

## COc1ccc(C(=O)NC2(C(=O)O)Cc3ccccc3C2)cc1OCCc1cccc(C)c1 [Form 2, 2-(4-methoxy-3-(3-methylphenethoxy)benzamido)-2,3-dihydro-1H-indene-2-carboxylic acid]
[6]; aqueous buffer, thermodynamic from solid, read-out: Solubility, concentration (equilibrium)
  solubility at 24 h: 57 µg/mL (≈ 128 µM)
[6]
  24 hour solubility, greater than Form 1 by: more than 30%
[5]; Ethyl Acetate
  Final form after slurry: Form 2
[5]; MEK
  Final form after slurry: Form 1
[5]; Methanol
  Final form after slurry: Form 2
[5]; Methyl THF
  Final form after slurry: Form 2

## COc1ccc(C(=O)NC2(C(=O)O)Cc3ccccc3C2)cc1OCCc1cccc(C)c1 [Form 3, 2-(4-methoxy-3-(3-methylphenethoxy)benzamido)-2,3-dihydro-1H-indene-2-carboxylic acid]
[6]
  Equilibrium solubility at 24 hours compared with Form 1: more than double
  Solubility, concentration (equilibrium): 97 µg/mL (≈ 218 µM)
[5]; Ethyl Acetate
  Final form after slurry: Form 1
[5]; MEK
  Final form after slurry: Form 1
[5]; Methanol
  Final form after slurry: Form 1
[5]; Methyl THF
  Final form after slurry: Form 1

## COc1ccc(C(=O)NC2(C(=O)O)Cc3ccccc3C2)cc1OCCc1cccc(C)c1 [Form 4, 2-(4-methoxy-3-(3-methylphenethoxy)benzamido)-2,3-dihydro-1H-indene-2-carboxylic acid]
[6]
  Equilibrium solubility at 24 hours compared with Form 1: more than double
  Solubility, concentration (equilibrium): 102 µg/mL (≈ 229 µM)

## COc1ccc(C(=O)NC2(C(=O)O)Cc3ccccc3C2)cc1OCCc1cccc(C)c1 [Forms 1, 2, 3]
[5]; MEK
  Final form after slurry: Form 1
[5]; Methanol
  Final form after slurry: Form 1
[5]; Methyl THF
  Final form after slurry: Form 1

## COc1ccc(C(=O)NC2(C(=O)O)Cc3ccccc3C2)cc1OCCc1cccc(C)c1 [mixture of Form 1 and Form 2]
[7]; 1-Pentanol, 60° C.
  Form after slurry (direction of transformation): Form 2
[7]; 1-Pentanol, 70° C.
  Form after slurry (direction of transformation): Form 2
[7]; MEK, 40° C.
  Form after slurry (direction of transformation): Form 1
[7]; MEK, 50° C.
  Form after slurry (direction of transformation): Form 1
[7]; MEK, 60° C.
  Form after slurry (direction of transformation): Form 2
[7]; MEK, 70° C.
  Form after slurry (direction of transformation): Form 2
[7]; Methanol, 40° C.
  Form after slurry (direction of transformation): Form 1
[7]; Methanol, 50° C.
  Form after slurry (direction of transformation): Form 1

## COc1ccc(C(=O)NC2(C(=O)O)Cc3ccccc3C2)cc1OCCc1cccc(C)c1 [mixtures of Form 4 and Form 1]
[5]; MEK
  Final form after slurry: Form 1
[5]; Methanol
  Final form after slurry: Form 1

Reference: patent publication US20230322657A1, “CRYSTALLINE EDG-2 RECEPTOR ANTAGONIST AND METHODS OF MAKING” (Sanofi, priority 2020, published 2023)
